Legend:
BACE1 = target: T1, BACE1 (Homo sapiens, UniProt P56817); test: BACE1 biochemical FRET based assay; conditions: Method 1: recombinant BACE1 1 μg/ml, 120 min at room temperature, pH 5.0; for IC50: read-out: Biochemical FRET based assay pIC50 (converted)
T1 construct: recombinant BACE1 protein in a final concentration of 1 μg/ml
How it was run: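 Recombinant BACE1 (1 μg/ml) incubated 120 min at room temperature with 10 μm Mca/Dnp-quenched 13-mer APP Swedish-mutant peptide in 40 mM citrate pH 5.0, 0.04% PEG, 4% DMSO. Fluorescence (ex 320/em 405 nm) change between T0 and T120 gives activity; IC50 from least-squares curve fit of % control versus concentration.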

[1] = system: Abeta 1-42 produced and secreted into the medium of human neuroblastoma SKNBE2 cells; test: Cellular αLisa assay in SKNBE2 cells; type: cell-based; conditions: human neuroblastoma SKNBE2 cells expressing hAPP695, 18 hours incubation; for IC50: Homo sapiens, SKNBE2, 18 h, read-out: Cellular αLisa assay in SKNBE2 cells Abeta 42 pIC50 (converted)
How it was run: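 Human neuroblastoma SKNBE2 cells expressing wild-type hAPP695 were exposed to compound for 18 hours. Secreted Abeta 1-42 in medium was quantified by sandwich αLisa (AbN/25 and cAb42/26 beads; 1 h, excitation 650 nm, emission 615 nm). IC50 came from a least-squares curve fit of % Controlmin against concentration.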

BACE2 = target: T2, BACE2 (Homo sapiens, UniProt Q9Y5Z0); test: BACE2 biochemical FRET based assay; conditions: recombinant BACE2, 450 minutes at room temperature, pH 5.0; for IC50: read-out: Biochemical FRET based assay pIC50 (converted)
T2 construct: recombinant BACE2 protein in a final concentration of 0.4 μg/ml
T2 sequence (Q9Y5Z0 63-518): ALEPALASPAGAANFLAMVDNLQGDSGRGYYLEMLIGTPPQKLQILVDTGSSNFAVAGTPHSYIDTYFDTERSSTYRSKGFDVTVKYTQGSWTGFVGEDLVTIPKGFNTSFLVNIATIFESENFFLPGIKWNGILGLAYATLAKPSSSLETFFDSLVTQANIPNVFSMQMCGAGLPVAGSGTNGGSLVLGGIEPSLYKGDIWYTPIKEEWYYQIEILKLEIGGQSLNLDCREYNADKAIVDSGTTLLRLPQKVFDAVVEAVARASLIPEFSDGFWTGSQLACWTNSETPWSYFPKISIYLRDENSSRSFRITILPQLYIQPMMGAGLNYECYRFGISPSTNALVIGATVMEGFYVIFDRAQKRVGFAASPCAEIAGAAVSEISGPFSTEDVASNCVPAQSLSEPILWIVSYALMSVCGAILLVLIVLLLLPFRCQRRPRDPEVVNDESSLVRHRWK
How it was run: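 Recombinant BACE2 (0.4 μg/ml) incubated 450 min at room temperature with 10 μM Mca/Dnp Swedish-APP FRET substrate in 50 mM citrate pH 5.0, 0.05% PEG, no DMSO. Fluorescence (ex 320/em 405 nm) difference T450 minus T0; IC50 from least-squares fit of % control versus concentration.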

[2] = system: Abeta 1-42 in cerebrospinal fluid (CSF); test: Pharmacology in the beagle dog: beta-amyloid profile in CSF after a single dose; type: in vivo; conditions: for % Mean decrease in Abeta 1-42 at 8 h post dosing compared to own baseline / % Mean decrease in Abeta 1-42 at 25 h post dosing compared to own baseline / % Mean decrease in Abeta 1-42 at 49 h post dosing compared to own baseline: beagle dog CSF; for EC50 Aβ42: beagle dog, CSF Abeta 1-42 after single dose
Procedure: Pharmacology in the Beagle Dog
(§1) Test compounds were tested to evaluate the effect on the beta-amyloid profile in cerebrospinal fluid (CSF) of dogs after a single dose, in combination with pharmacokinetic (PK) follow up and limited safety evaluation. For each of compound 4b, 3c, 7d, or 14, four beagle dogs (2 males, 2 females) were dosed with vehicle (1 ml/kg of an aqueous solution of 20% cyclodextrin) and 12, 8, 4 and 4 beagle dogs (2 males and 2 females per dosage group), were dosed with test compounds as follows:
CSF was taken in conscious animals directly from the lateral ventricle via a cannula which was screwed in the skull and covered with subcutaneous tissue and skin, before and at 4, 8, 25 and 49 hours after dosing. Eight hours after dosing the animals got access to their regular meal for 30 minutes. Blood was taken for PK follow up (0.5, 1, 2, 4, 8, 25 and 49 hours) and serum samples for biochemistry were taken before and at 8 and 25 h after dosing. The CSF samples were used for measurement of Abeta 1-42.

[3] = Limited safety evaluation in the beagle dog (observations, serum biochemistry); type: in vivo
Procedure: as §1
CSF was taken in conscious animals directly from the lateral ventricle via a cannula which was screwed in the skull and covered with subcutaneous tissue and skin, before and at 4, 8, 25 and 49 hours after dosing. Eight hours after dosing the animals got access to their regular meal for 30 minutes. […] The CSF samples were used for measurement of Abeta 1-42.

[4] = Phase 2 trial, development terminated June 2013; cited from earlier work

T1 sequence (P56817 46-501): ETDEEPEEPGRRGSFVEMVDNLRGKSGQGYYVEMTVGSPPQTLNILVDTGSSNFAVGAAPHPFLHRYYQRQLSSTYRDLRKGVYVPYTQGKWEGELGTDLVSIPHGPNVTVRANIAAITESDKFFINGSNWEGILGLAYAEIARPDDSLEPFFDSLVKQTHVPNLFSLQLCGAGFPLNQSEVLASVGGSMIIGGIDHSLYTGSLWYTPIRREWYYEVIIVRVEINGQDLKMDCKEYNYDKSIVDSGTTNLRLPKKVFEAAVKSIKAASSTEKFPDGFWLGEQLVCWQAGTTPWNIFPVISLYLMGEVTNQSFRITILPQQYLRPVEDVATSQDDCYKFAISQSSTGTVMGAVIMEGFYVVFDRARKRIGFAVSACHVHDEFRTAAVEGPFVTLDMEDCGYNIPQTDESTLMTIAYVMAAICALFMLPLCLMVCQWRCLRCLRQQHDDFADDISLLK

Row | SMILES | Biochemical FRET based assay pIC50 (BACE1) | Cellular αLisa assay in SKNBE2 cells Abeta 42 pIC50 [1] | Biochemical FRET based assay pIC50 (BACE2) | % Mean decrease in Abeta 1-42 at 8 h post dosing compared to own baseline ([2]; single dose 0.31 mg/kg) | % Mean decrease in Abeta 1-42 at 25 h post dosing compared to own baseline ([2]; single dose 0.31 mg/kg) | IC50 (BACE1) | IC50 [1] | IC50 (BACE2) | other results
1 | C[C@@]1(C#N)C[C@@H]2[C@@H](C(F)(F)F)OC[C@]2(c2cc(NC(=O)c3ccc(C#N)cn3)ccc2F)N=C1N [3c] | 9.06 | 8.52 | 7.97 | 64% | 62% | – | – | – | % Mean decrease in Abeta 1-42 at 8 h post dosing compared to own baseline ([2]; single dose 0.08 mg/kg): 29%; % Mean decrease in Abeta 1-42 at 25 h post dosing compared to own baseline ([2]; single dose 0.08 mg/kg): 27%; % Mean decrease in Abeta 1-42 at 49 h post dosing compared to own baseline ([2]; single dose 0.08 mg/kg): NR (NR means % decrease < 20); % Mean decrease in Abeta 1-42 at 49 h post dosing compared to own baseline ([2]; single dose 0.31 mg/kg): 50%; EC50 Aβ42 [2]: 0.019 µg/mL; Observations ([3]; one female dog dosed at 0.08 mg/kg, single dose, 8 h post dosing): moderate diarrhea
2 | C[C@H]1OC[C@]2(c3cc(NC(=O)c4ccc(C#N)cn4)ccc3F)N=C(N)[C@](C)(C#N)C[C@H]12 [4b] | 8.73 | 8.9 | 7.84 | 54% | 53% | – | – | – | % Mean decrease in Abeta 1-42 at 8 h post dosing compared to own baseline ([2]; single dose 0.16 mg/kg): 42%; % Mean decrease in Abeta 1-42 at 25 h post dosing compared to own baseline ([2]; single dose 0.16 mg/kg): 21%; % Mean decrease in Abeta 1-42 at 49 h post dosing compared to own baseline ([2]; single dose 0.16 mg/kg): NR (NR means % decrease < 20); % Mean decrease in Abeta 1-42 at 49 h post dosing compared to own baseline ([2]; single dose 0.31 mg/kg): NR (NR means % decrease < 20); % Mean decrease in Abeta 1-42 at 8 h post dosing compared to own baseline ([2]; single dose 1.25 mg/kg): 80%; % Mean decrease in Abeta 1-42 at 25 h post dosing compared to own baseline ([2]; single dose 1.25 mg/kg): 71%; % Mean decrease in Abeta 1-42 at 49 h post dosing compared to own baseline ([2]; single dose 1.25 mg/kg): 34%; EC50 Aβ42 [2]: 0.024 µg/mL; Observations ([3]; one female dog dosed at 1.25 mg/kg, single dose, 8 h post dosing): slight diarrhea
3 | C[C@@]1(C#N)C[C@@H]2[C@@H](C(F)(F)F)OC[C@]2(c2cc(NC(=O)c3cnc(OCF)cn3)ccc2F)N=C1N [7d] | 8.79 | 8.02 | 7.25 | 42% | NR (NR means % decrease < 20) | – | – | – | ALT liver enzyme increase ([3]; one female dog, 0.31 mg/kg single dose): 6 fold; Observations ([3]; one female dog, 0.31 mg/kg single dose, 49 h post dosing): slight tremors and head shaking
4 | C[C@@]1(C#N)C[C@@H]2[C@@H](C(F)F)OC[C@]2(c2cc(NC(=O)c3cnc(-n4cncn4)cn3)ccc2F)N=C1N [26a] | – | – | – | – | – | 9.77 nM | 31.6 nM | 105 nM | –
5 | C[C@@]1(C#N)C[C@@H]2[C@@H](C(F)F)OC[C@]2(c2cc(NC(=O)c3ccc(C#N)cn3)ccc2F)N=C1N [27a] | – | – | – | – | – | 2.82 nM | 6.31 nM | 36.3 nM | –
6 | NC1=N[C@@]2(c3cc(NC(=O)c4ccc(F)cn4)ccc3F)COC[C@H]2CS1 [LY2886721] | – | – | – | – | – | – | – | – | liver abnormalities (patients affected) [4]: four out of 45
7 | CC(F)(F)[C@H]1OC[C@]2(c3cc(NC(=O)c4cnc(OCF)cn4)ccc3F)N=C(N)[C@](C)(C#N)C[C@H]12 [compound 14] | – | – | – | – | – | 2.24 nM | 6.92 nM | 81.3 nM | % Mean decrease in Abeta 1-42 at 8 h post dosing compared to own baseline ([2]; single dose 0.63 mg/kg): 32%; % Mean decrease in Abeta 1-42 at 25 h post dosing compared to own baseline ([2]; single dose 0.63 mg/kg): NR (NR means % decrease < 20); % Mean decrease in Abeta 1-42 at 49 h post dosing compared to own baseline ([2]; single dose 0.63 mg/kg): NR (NR means % decrease < 20); Observations ([3]; one dog, 0.63 mg/kg single dose, 2 h post dosing): emesis
8 | CC1OCC2(c3cc(NC(=O)c4ccc(OC(F)F)cn4)ccc3F)N=C(N)C(C)(C#N)CC12 (stereo not shown) [compound 35] | – | – | – | – | – | 6.76 nM | 10 nM | 85.1 nM | –

From US20200062773A1, “4,4a,5,7-TETRAHYDRO-3H-FURO[3,4-b]PYRIDINYL COMPOUNDS” (Janssen Pharmaceutlca NV, priority 2016, published 2020)
